The values that follow come from patent US20240156800A1, “EP300 DEGRADER AND USES THEREOF IN NEUROBLASTOMA” (DANA-FARBER CANCER INSTITUTE, INC., priority 2021, published 2024).

Assay [1] concerns Kelly, NGP and BE2C NB cells. Kind of assay: Propidium iodide DNA flow cytometry (cell cycle, sub-G1). Type of assay: cell-based, human. The following applies: Kelly and NGP cells. The protocol: Cells were infected with lentiviruses encoding single guide RNAs (sgRNAs) or treated with compounds as described for the noted length of time. Cells were then liberated from adhesion to the plate using a sterile spatula (Coming®) followed by centrifugation, aspiration of media, and resuspension in hypotonic citrate-propidium iodide (PI) solution for 30 minutes at 37° C. (Tate et al. Cytometry 4:211-215 (1983)). Nuclei were stabilized using 5M NaCl prior to analysis on a FACSAria™ II (BD Biosciences). Analysis of cell cycle phases was performed using FlowJo® v10.7 (BD Biosciences).
A general note: In flow cytometry, cells or beads pass a laser one at a time.

Assay [2] relates to Kelly-Cas9 control or CRBN knockout cells. Kind of assay: CellTiter-Glo assay of Kelly-Cas9 control or CRBN knockout cells. Format: cell-based, human. The following applies: range of doses, seven days. The method, then: (§1) Cells were infected with lentiviruses encoding sgRNAs or treated with compounds as described. Colony assays were performed by replating cells at 500 cells per well in 6-well dishes and grown in regular growth media for 10 d before 100% methanol fixation, 0.05% crystal violet staining, and quantitation. Experiments were completed in triplicate; data shown are the average of three independent experiments. Cell Titer-Glo® assay was performed as per the manufacturer's instructions (Promega®). Briefly, 1000 cells/well were plated into 96-well plates and treated with a range of compound dosing. Cell viability was measured at the noted time points based on luminescence by the Cell Titer-Glo® assay (Promega®) and read on an Envision 2104 (PerkinElmer®, USA) according to the manufacturer's protocol.
(§2) sgRNAs targeting individual genes were subcloned by standard methodologies within pLKO.5-EFGP. Kelly, SIMA, BE2C, and NGP cells were infected with lenticas9 followed by blasticidin selection. Stable expression of cas9 was established by western blotting of protein lysates using cas9 antibody (Cell Signaling Technology®). Following infection of pLKO.5-EGFP-sgRNA lentivirus, cells were cultured for the identified times prior to evaluation. BE2C cells were infected with pLC-zsgreen or pLC-CRBN lentiviruses and selected using 500 μg/mL hygromycin (Invitrogen™)
(Cellular ATP, detected with luciferase, serves as a proxy for viable cell number.)

The target of assay [3] is T1, CBP (Homo sapiens, UniProt Q92793).
T1 construct: Cells growing in culture were lysed for whole cell lysates; endogenous in cells; host or cells: Kelly, NGP, SIMA, BE2C neuroblastoma cells; Kelly xenografts in NSG mice
T1 sequence (Q92793 whole entry): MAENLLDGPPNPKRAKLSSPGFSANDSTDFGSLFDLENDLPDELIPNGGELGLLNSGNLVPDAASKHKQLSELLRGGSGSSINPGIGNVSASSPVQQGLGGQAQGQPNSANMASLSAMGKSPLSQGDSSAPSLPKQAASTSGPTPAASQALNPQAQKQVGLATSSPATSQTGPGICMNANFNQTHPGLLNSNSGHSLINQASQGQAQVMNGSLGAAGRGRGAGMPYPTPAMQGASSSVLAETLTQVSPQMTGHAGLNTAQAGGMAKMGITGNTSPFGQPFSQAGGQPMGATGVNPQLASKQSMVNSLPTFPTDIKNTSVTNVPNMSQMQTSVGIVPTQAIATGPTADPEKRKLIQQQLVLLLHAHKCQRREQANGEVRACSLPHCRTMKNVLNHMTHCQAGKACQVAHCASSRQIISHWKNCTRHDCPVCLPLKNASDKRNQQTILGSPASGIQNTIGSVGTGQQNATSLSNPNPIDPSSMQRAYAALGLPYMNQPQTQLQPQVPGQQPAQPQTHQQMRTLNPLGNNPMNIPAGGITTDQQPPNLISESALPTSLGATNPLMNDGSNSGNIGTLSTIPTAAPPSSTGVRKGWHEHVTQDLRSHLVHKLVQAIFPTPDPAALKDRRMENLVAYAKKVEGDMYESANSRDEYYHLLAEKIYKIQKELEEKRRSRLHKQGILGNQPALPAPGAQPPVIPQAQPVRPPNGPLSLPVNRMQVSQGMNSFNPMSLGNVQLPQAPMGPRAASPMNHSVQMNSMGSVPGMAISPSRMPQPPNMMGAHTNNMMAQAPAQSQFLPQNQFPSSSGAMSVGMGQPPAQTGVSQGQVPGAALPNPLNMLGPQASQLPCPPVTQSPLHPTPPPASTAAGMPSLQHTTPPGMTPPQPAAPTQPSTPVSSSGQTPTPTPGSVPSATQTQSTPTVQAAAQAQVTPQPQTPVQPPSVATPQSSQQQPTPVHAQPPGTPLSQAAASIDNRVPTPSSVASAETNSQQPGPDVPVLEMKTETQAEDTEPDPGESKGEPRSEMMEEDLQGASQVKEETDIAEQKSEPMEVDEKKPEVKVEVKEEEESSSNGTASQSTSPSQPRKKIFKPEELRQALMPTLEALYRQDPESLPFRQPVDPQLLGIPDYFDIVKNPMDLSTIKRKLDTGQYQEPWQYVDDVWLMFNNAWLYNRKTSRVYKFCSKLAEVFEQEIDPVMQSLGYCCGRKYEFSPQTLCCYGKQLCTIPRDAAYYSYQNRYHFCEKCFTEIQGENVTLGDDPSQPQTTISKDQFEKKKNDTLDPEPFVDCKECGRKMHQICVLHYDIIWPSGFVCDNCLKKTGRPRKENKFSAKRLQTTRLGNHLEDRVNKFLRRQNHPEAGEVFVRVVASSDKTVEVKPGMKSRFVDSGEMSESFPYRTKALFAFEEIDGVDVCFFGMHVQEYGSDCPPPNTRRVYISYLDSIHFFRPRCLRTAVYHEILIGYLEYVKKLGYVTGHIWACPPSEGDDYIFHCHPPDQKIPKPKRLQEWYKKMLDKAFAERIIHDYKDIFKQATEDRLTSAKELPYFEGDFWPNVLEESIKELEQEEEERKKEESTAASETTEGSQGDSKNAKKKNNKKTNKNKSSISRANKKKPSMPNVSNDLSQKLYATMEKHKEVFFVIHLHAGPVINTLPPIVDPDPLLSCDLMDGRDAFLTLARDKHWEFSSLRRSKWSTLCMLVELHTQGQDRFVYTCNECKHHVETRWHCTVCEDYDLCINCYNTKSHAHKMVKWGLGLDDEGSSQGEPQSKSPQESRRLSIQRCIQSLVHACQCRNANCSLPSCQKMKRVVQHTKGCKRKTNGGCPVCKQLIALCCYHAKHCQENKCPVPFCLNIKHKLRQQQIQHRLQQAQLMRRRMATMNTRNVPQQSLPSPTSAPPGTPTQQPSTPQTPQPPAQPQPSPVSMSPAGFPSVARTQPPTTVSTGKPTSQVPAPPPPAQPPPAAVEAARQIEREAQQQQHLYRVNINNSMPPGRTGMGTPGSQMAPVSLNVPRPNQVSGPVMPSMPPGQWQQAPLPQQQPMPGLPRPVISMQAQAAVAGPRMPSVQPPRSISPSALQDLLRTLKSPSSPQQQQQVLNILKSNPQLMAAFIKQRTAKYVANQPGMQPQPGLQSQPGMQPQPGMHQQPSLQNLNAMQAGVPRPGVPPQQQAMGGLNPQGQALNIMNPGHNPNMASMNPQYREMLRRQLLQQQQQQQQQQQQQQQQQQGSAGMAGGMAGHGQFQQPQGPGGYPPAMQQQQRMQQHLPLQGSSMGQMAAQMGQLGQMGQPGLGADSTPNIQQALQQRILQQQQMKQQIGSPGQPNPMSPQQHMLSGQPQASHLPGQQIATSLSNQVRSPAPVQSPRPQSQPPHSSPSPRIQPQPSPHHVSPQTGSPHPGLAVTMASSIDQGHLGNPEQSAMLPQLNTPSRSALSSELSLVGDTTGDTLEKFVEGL
Kind of assay: Immunohistochemistry of CBP in Kelly cell xenografts. Type of assay: in vivo. The following applies: 40 mg/Kg once daily. The method, then:
Separately, eight animals were xenografted as described above, and treated with vehicle (n=4) or JQAD1 (n=4) at 40 mg/kg IP daily for 14 days. These animals were sacrificed at day 14, following which tumor was extracted, and divided for immunohistochemical analysis or analysis of RNA expression by RNA sequencing (RNA-seq). Immunohistochemistry was performed on the Leica® Bond™ III automated staining platform. Antibody EP300 from Cell Signaling Technology®, catalog number 86377, clone D8Z4E, was run at 1:50 dilution using the Leica® Biosystems Refine Detection Kit with citrate antigen retrieval. Antibody KAT3A/CBP (catalog number ab2832, polyclonal, Abcam) was run at 1:200 using the Leica® Biosystems Refine Detection Kit with ethylenediaminetetraacetic acid (EDTA) antigen retrieval.

Assay [4] addresses T2, CBP (Mus musculus, UniProt P45481).
T2 construct: from tissue; host or cells: liver of Balb/c Crbn^ILE391VAL knock-in mice
The assay can be described thus: Immunohistochemistry of CBP in liver of Crbn ILE391VAL knockin mice. Format: in vivo. The following applies: 40 mg/Kg IP daily, 14 days. The protocol: For toxicity studies, four female CD1 mice (Charles River Laboratories) were injected intraperitoneally (IP) with single doses of 10 mg/Kg (R,S)-JQAD1 solubilized in 10% hydroxypropyl β-cyclodextrin (Sigma-Aldrich®) in sterile water. Following injection, blood concentration of (R,S)-JQAD1 was measured by serial measurements of animal serum at time points out to 24 h, by liquid chromatography with tandem mass spectrometry (LC-MS/MS) analysis. Pharmacokinetics were performed at ChemPartner in Shanghai, China, using LC-MS/MS method and pharmacokinetics parameters (Tmax, Cmax, T1/2, AUC, etc.) calculated with WinNonlin® V 6.2 statistics software (Pharsight Corporation) using a noncompartmental model. For maximally tolerated dose (MTD) testing, six female CD1 mice were treated with daily IP doses of (R,S)-JQAD1 at 10, 20, or 40 mg/kg. Animals were monitored for animal weight, grooming and behavior daily without noted effects. […] Animal weights, behavior and grooming were monitored daily, for a total of 21 days. […] Blood samples were obtained by retro-orbital puncture and blood analyzed at the Small Animal Imaging Facility at Beth Israel Deaconess Medical Center (Boston, MA), on a Hemavet® 9500FS (Drew Scientific) for blood counts, creatinine, AST, ALT, ALP, GGTP, and BUN measurements. […]

In assay [5] the test system is BE2C-CRBN cells. The assay can be described thus: Cell-Titer Glo growth of BE2C cells overexpressing CRBN or zsGreen. Type of assay: cell-based, human. The following applies: 10 μM, 6 days. The protocol:
as §1, §2

T2 sequence (P45481 whole entry): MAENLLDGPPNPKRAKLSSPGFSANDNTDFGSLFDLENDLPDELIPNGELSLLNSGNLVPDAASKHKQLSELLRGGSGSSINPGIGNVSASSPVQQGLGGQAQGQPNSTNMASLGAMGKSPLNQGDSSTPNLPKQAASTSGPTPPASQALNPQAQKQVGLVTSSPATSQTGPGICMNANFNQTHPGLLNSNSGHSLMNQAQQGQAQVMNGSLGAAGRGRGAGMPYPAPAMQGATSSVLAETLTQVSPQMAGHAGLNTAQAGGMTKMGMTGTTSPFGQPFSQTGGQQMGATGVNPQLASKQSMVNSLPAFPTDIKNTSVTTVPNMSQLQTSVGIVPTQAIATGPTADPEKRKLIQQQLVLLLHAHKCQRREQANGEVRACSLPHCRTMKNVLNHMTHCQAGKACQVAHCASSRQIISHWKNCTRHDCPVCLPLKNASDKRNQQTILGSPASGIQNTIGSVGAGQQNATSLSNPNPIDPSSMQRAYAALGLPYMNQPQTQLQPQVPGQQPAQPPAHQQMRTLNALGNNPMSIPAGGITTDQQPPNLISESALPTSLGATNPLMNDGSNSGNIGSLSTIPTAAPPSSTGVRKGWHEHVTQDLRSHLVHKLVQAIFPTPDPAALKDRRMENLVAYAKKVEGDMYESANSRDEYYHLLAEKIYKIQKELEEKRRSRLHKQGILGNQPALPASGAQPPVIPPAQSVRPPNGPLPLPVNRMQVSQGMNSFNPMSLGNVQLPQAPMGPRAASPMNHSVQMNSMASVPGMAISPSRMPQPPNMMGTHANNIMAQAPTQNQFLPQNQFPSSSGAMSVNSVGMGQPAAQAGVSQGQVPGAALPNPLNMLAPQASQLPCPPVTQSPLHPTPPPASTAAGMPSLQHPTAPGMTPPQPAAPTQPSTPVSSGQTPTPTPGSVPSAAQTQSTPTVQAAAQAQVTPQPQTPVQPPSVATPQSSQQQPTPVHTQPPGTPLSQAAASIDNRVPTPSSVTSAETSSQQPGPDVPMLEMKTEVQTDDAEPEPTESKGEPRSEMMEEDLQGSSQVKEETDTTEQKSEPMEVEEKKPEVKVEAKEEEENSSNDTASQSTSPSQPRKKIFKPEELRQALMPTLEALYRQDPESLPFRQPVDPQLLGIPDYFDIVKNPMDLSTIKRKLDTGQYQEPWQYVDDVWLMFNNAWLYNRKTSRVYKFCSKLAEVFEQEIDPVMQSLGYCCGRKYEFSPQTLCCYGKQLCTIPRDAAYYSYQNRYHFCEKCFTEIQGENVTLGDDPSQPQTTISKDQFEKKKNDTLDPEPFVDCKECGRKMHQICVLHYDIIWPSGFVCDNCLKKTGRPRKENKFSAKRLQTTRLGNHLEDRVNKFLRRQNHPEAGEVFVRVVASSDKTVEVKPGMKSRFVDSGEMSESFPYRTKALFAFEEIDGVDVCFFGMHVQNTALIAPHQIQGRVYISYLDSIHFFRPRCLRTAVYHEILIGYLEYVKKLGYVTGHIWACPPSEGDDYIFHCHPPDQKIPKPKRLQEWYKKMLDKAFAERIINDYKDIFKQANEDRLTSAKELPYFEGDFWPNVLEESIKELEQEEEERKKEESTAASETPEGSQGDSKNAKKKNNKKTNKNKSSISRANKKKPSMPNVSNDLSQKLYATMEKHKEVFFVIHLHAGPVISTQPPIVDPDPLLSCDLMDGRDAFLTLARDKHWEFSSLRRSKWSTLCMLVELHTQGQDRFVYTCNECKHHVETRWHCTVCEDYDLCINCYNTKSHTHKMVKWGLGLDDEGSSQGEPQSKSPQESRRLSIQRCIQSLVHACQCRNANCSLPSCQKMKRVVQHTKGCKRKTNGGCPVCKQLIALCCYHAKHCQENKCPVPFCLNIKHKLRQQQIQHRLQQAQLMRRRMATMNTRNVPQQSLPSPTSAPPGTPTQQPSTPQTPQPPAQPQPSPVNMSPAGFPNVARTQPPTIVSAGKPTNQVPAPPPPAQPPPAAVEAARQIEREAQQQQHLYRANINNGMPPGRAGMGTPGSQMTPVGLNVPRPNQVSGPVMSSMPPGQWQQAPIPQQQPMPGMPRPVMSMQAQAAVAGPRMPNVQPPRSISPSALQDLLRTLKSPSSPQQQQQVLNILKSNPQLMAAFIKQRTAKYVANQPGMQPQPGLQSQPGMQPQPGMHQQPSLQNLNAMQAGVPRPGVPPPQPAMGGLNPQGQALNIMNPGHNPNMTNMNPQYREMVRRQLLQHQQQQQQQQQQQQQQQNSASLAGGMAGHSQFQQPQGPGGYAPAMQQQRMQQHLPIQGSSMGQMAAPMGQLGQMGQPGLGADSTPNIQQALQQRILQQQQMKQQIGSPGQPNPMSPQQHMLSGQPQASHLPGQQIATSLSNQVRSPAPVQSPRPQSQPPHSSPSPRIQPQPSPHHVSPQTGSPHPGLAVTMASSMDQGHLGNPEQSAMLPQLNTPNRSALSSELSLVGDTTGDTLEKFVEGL

Turning to `C[C@H](N(Cc1ccc(F)cc1)C(=O)CN1C(=O)O[C@@]2(CCc3cc(NC(=O)CCCCCCCCCCCNc4ccc5c(c4)C(=O)N(C4CCC(=O)NC4=O)C5=O)ccc32)C1=O)C(F)(F)F` (stereo partly drawn) [JQAD1, 12-((2-(2,6-dioxopiperidin-3-yl)-1,3-dioxoisoindolin-5-yl)amino)-N-((R)-3′-(2-((4-fluorobenzyl)((S)-1,1,1-trifluoropropan-2-yl)amino)-2-oxoethyl)-2′,4′-dioxo-2,3-dihydrospiro[indene-1,5′-oxazolidin]-5-yl)dodecanamide], in assay [1], the “cell cycle / subG1 effect” value is “induction of a subG1 peak”. For the same compound, in assay [2], the “growth of CRBN-knockout Kelly cells” value is listed as “resistant” and the “growth of control-edited Kelly cells” value is “potently killed”. In addition, in assay [3], the “CBP immunostaining of tumors” value is listed as “CBP immunostaining was retained”. In addition, in assay [4], the CBP in liver result was “CBP remained detectable by immunohistochemistry”. Also, the “growth of BE2C-CRBN cells” value in assay [5] is given as “suppressed”.
